According to patent US20040131701A1, “Method to treat infectious diseases and/or to enhance antimicrobial efficacy of drugs” (Virocell Inc., priority 2000, published 2004):

Legend:
[1] = system: recombinant luciferase-encoding virions (NL4-3 backbone) pseudotyped with T-tropic HXB-2D envelope; assay: Infection of Jurkat cells with luciferase-encoding virions, HXB-2D envelope; type: cell-based, HIV-1; details: 72 h
Description: (§1) Fully infectious viral entities were generated by calcium phosphate transfection of 293T with pNL4-3 vector (T-tropic virions) as described below. Recombinant luciferase-encoding virus particles pseudotyped with the appropriate Env proteins have been used in our series of investigations. […] This test is based on the molecular construct pNL4-3-Luc-E-R+, a vector that carries the gene for firefly luciferase inserted into the nef gene of the pNL4-3 provirus and contains also a frameshift at the 5′ end of env (nt 5950) that prevents expression of the envelope glycoproteins. Progeny viruses were generated by cotransfecting 293T cells with pNL4-3-Luc-E-R+ and a plasmid DNA encoding for the appropriate envelope glycoproteins (T or macrophage-tropic). Briefly, a typical transfection experiment was performed as follow. In brief, 293T cells were plated 24 h before transfection at a concentration of 5×10^5 cells per 3 ml of DMEM into each well of 6-well plates. All solutions were brought to room temperature before use. Immediately before transfection, DNA was added to 25 μl of 2.5M CaCl2 and the volume was completed to 250 μl with distilled water. This solution was then added drop by drop to 250 μl of 2×HBS solution (280 mM NaCl, 50 mM HEPES, 1.5 mM Na2HPO4, pH 7.05) and the resulting mixture was stored at room temperature for 5 min. This DNA-HBS mixture was finally added drop by drop to plated 293T cells before incubation at 37° C. under a 5% CO2atmosphere. At 16 h after transfection, cells were washed twice with 3 ml of PBS and were incubated for an additional 24 h with 3 ml of DMEM supplemented with 10% FBS. Virion-containing supernatants were filtered through a 0.45-μm cellulose acetate membrane (Millipore, Mass.), aliquoted in 200 μl fractions, and were finally frozen at −85° C. until needed. Virus stocks were normalized for virion content using a commercial assay for the viral major core protein p24 (Organon Teknika, Durham, N.C.).
(§2) In brief, 100 μl of cell-free supernatant were discarded from each well and 25 μl of cell culture lysis buffer 5×(125 mM Tris phosphate [pH 7.8], 10 mM DTT, 5% Triton X-100, and 50% glycerol) were added to the wells before incubation at room temperature for 30 min. An aliquot of cell lysate (20 μl) was mixed with 100 μl luciferase assay buffer (20 mM tricine, 1.07 mM (MgCO3)4. Mg(OH)2.5H2O, 2.67 mM MgSO4, 0.1 mM EDTA, 270 μM coenzyme A, 470 μM luciferin, 530 μM ATP, and 33.3 mM DTT). Luciferase activity was monitored using a microplate luminometer (MLX; Dynex Technologies, Chantilly, Va.).
We attempted to define any putative interaction (additive, synergistic or antagonistic) between bpV compounds and currently approved anti-HIV-1 agents (AZT/Zidovudine, 3TC/Epivir/Lamivudine). […]

[2] = system: T-tropic strain HIV-1NL4-3; assay: Replication of HIV-1 in Sup-T1 cells (p24 in culture supernatants); type: cell-based; details: 10 days, all three tested concentrations
Description: (§3) Fully infectious viral entities were generated by calcium phosphate transfection of 293T with pNL4-3 vector (T-tropic virions) as described below. Recombinant luciferase-encoding virus particles pseudotyped with the appropriate Env proteins have been used in our series of investigations. Such a system provides a highly sensitive and reproducible assay to monitor single-cycle viral infection events. This test is based on the molecular construct pNL4-3-Luc-E-R+, a vector that carries the gene for firefly luciferase inserted into the nef gene of the pNL4-3 provirus and contains also a frameshift at the 5′ end of env (nt 5950) that prevents expression of the envelope glycoproteins. […]
Sup-T1 cells were seeded at a density of 10^5 cells per well (100 μl) in 96-well flat-bottom, plates. […] Cells were incubated for 10 days and kinetics of viral infection was assessed by measuring in cell-free culture supernatants the major core viral p24 protein with the use of a commercial enzymatic assay (Organon Teknika). Putative toxicity of bpV molecules was assessed by adding the tetrazolium salt MTT to Sup-T1 cells that were cultured for 10 days under the constant pressure of the indicated concentrations of bpV[pic] and bpV[phen] molecules.

[3] = system: T-tropic recombinant luciferase-encoding HIV-1 particles; assay: Infection of PM1 cells with luciferase reporter virus, T-tropic envelope; type: cell-based; details: 5 min pretreatment, 72 h
Description: as §3, with “glycoproteins. Progeny viruses were generated by cotransfecting 293T cells with pNL4-3-Luc-E-R+ and a plasmid DNA encoding for the appropriate envelope glycoproteins (T or macrophage-tropic). Briefly, a typical transfection experiment was performed as follow.” for “glycoproteins.”
(§4) In brief, 100 μl of cell-free supernatant were discarded from each well and 25 μl of cell culture lysis buffer 5×(125 mM Tris phosphate [pH 7.8], 10 mM DTT, 5% Triton X-100, and 50% glycerol) were added to the wells before incubation at room temperature for 30 min. […] Luciferase activity was monitored using a microplate luminometer (MLX; Dynex Technologies, Chantilly, Va.). […]

[4] = system: macrophage-tropic recombinant luciferase-encoding HIV-1 particles; assay: Infection of PM1 cells with luciferase reporter virus, macrophage-tropic envelope; type: cell-based; details: 5 min pretreatment, 72 h
Description: as §3, with “glycoproteins. Progeny viruses were generated by cotransfecting 293T cells with pNL4-3-Luc-E-R+ and a plasmid DNA encoding for the appropriate envelope glycoproteins (T or macrophage-tropic). Briefly, a typical transfection experiment was performed as follow.” for “glycoproteins.”
as §4

[5] = system: recombinant luciferase-encoding virions (NL4-3 backbone) pseudotyped with macrophage-tropic ADA envelope; assay: Infection of primary human MDM with luciferase-encoding virions, ADA envelope; type: cell-based, HIV-1; details: 48 h; for anti-HIV-1 efficacy (luciferase activity): 10 μM bpV[pic] or 5 μM bpV[phen], pretreatment 5 to 120 min
Description: as §1, §2

primary human MDM = assay: MTT toxicity in primary human MDM; type: cell-based; details: 48 h
Description: Target cells used in the present invention include human CD4-expressing T lymphoid Sup-T1, PM1, and Jurkat cells. Moreover, primary human monocyte-derived macrophages (MDM) and peripheral blood mononuclear cells (PBMC′) were also used in the current work, MDM were obtained using a standard technique. In brief, the mononuclear cell fraction was isolated by Ficoll-Hypaque centrifugation. Peripheral blood mononuclear cells were suspended in seeding medium (RPMI 1640+20% fetal calf serum+10% human serum type AB) in tissue culture 48-well plates (3×10^6 cells/ml and 500 μl per well). Five days after the initiation of the cultures, nonadherent cells were removed by rinsing the cultures three times with phosphate buffered saline. Next, such adherent cells were maintained in RPMI 1640 medium supplemented with 20% fetal calf serum.
Putative toxicity of bpV[pic] and bpV[phen] molecules was next assessed by adding the tetrazolium salt MTT to primary human MDM that were cultured for 48 h under the constant pressure of the indicated concentrations of bpV compounds.

Sup-T1 cells = type: cell-based, human
Procedure: Sup-T1 cells were seeded at a density of 10^5 cells per well (100 μl) in 96-well flat-bottom, plates. Cells were either left untreated (control) or were pretreated for 5 min at 37° C. with the two different bpV molecules (bpV [pic] and bpV[phen]) at the indicated concentrations in a final volume of 200 μl. Next, both untreated and bpV-treated Sup-T1 cells were inoculated with the fully infectious T-tropic strain HIV-1NL4-3 (10 ng of p24). Culture medium was replaced twice a week and was supplemented with the appropriate final concentration of bpV molecules. Cells were incubated for 10 days and kinetics of viral infection was assessed by measuring in cell-free culture supernatants the major core viral p24 protein with the use of a commercial enzymatic assay (Organon Teknika). Putative toxicity of bpV molecules was assessed by adding the tetrazolium salt MTT to Sup-T1 cells that were cultured for 10 days under the constant pressure of the indicated concentrations of bpV[pic] and bpV[phen] molecules.

[6] = system: Human peripheral blood mononuclear cells; assay: HPLC analysis of phosphorylated forms of 3TC in PBMC's; type: cell-based; details: 10 μM bpV[pic], 3TC at 5, 10 and 20 μM
Procedure: Analysis of the cellular content in 3TC and its phosphorylated metabolites was performed by HPLC as follows. In preparations for HPLC analysis, 1 ml of a mixture of acetonitrile/water (5/95, vol/vol) and 0.5 ml water were added to each sample. The samples were vortexed and centrifuged at 1000×g for 10 min at room temperature to remove the precipitated material. The supernatants were collected and used without further treatment for HPLC analysis. Two (2) ml of each sample (total volume of ˜2.5 ml) were injected onto a Beckman Ultrasphere ODS column (4.6 mm×150 mm) protected with a Guard-Pak C18 (Waters Millipore) pre-column. 3TC and its metabolites were eluted using a linear gradient from 100% solvent A to 100% solvent B in 25 minutes at a flow rate of 1.2 ml/minute (Solvent A: 5% acetonitrile, 70% water, 25% buffer [40 mM H3PO4, 8 mM tetrabutylammonium hydroxide, adjusted to pH 6.75 with concentrated ammonium hydroxide]; Solvent B: 40% acetonitrile, 35% water, 25% buffer). The elution of metabolites was monitored by counting radioactivity using a Flow Scintillation Analyser 500TR Series (Packard); the HPLC column effluent (1.2 ml/min) was mixed with a liquid scintillation cocktail (3 ml/min) (Ultima Flow M, Packard).
Human peripheral blood mononuclear cells (PBMC's) were obtained from healthy donors subjected to lymphopheresis for 60 min. The yield of PBMC's ranged from 1.8 to 2.6 billion cells per donor. Twenty-five (25) ml fractions of the cell suspensions (obtained by lymphopheresis) were layered on cushions (15 ml) of Lymphocyte Separation Medium (Wisent) in 50 ml tubes, which were then centrifuged at room temperature at 750×g during 25 min. The purified PBMC's were collected (on top of the Ficoll cushions) and washed 3 times in HBSS (without calcium and magnesium) (500×g, 7 min. at room temperature). The cells were resuspended in RPMI containing 5% FBS at the cell concentration of 25×10^6 per ml. Incubations were carried out using 1 ml of PBMC's suspension per tube. […]

Row | Molecule | virus infection (luciferase activity) ([1]; antiviral agent alone 0.05 μM) | HIV-1 production (p24) [2] | infection (luciferase activity) [3] | infection (luciferase activity) [4] | anti-HIV-1 efficacy (luciferase activity) ([5]; MDM) | toxicity (MTT) (primary human MDM; 10 and 20 μM) | toxicity (MTT) (Sup-T1 cells) | HIV-1 infection (luciferase activity) ([5]; MDM, 10 μM alone, 15 min pretreatment) | antiviral effect in combination with 3TC ([5]; MDM, 10 μM bpV[pic] with 0.035 μM 3TC, 15 min pretreatment) | anti-HIV-1 effect in combination with 3TC ([5]; MDM, 1, 5 and 10 μM bpV[pic] with 0.07 μM 3TC, 5 min pretreatment) | toxicity (MTT) (primary human MDM; 20 μM) | HIV-1 infection (luciferase activity) ([1]; bpV compound alone (2.5, 5, 10 μM)) | antiviral effect in combination with 3TC ([1]; combined with 0.05 μM 3TC) | antiviral effect in combination with AZT ([1]; combined with 0.05 μM AZT) | formation of 3TC diphosphate [6] | formation of 3TC triphosphate [6] | ratio of 3TC triphosphate over 3TC diphosphate [6]
1 | Cc1cn([C@H]2C[C@H](N=[N+]=[N-])[C@@H](CO)O2)c(=O)[nH]c1=O [AZT, Zidovudine, reference compound] | decreased |  |  |  |  |  |  |  |  |  |  |  |  |  |  |  | 
2 | O.O.O.OO.OO.[K+].[OH-].[V].c1cnc2c(c1)ccc1cccnc12 [bpV[phen], K[VO(O2)2phen]0.3H2O] |  | dramatic decrease of HIV-1 production | dose-dependent inhibition of infection | dose-dependent inhibition of infection | maintained over several pretreatment periods | detectable toxic effect |  |  |  |  |  |  |  |  |  |  | 
3 | K2[VO(O2)2pic].H2O [bpV[pic]] |  | dramatic decrease of HIV-1 production | dose-dependent inhibition of infection | dose-dependent inhibition of infection | maintained over several pretreatment periods |  | no toxic effect | inhibits HIV-1 infection | additive antiviral effect | dose-dependent additive anti-HIV-1 effect | toxic | inhibits HIV-1 infection | greater antiviral effect | greater antiviral effect | decreased | increased | consistently increases
